# Experimental data reported in patent US20050250137A1, “Molecular targets of cancer and aging” (priority 2002, published 2005).
# Test: GoMiner gene ontology analysis of differentially regulated genes
# Parameters: species or system human
# [1] = Cellular component: Chromosome, GO 0005694, Total 108
# [2] = Cellular component: Cytoplasm, GO 0005737, Total 1705
# [3] = Cellular component: Cytoplasmic vesicle, GO 0016023, Total 59
# [4] = Cellular component: Cytoskeleton, GO 0005856, Total 334
# [5] = Cellular component: Cytosol, GO 0005829, Total 176
# [6] = Cellular component: Endoplasmic reticulum, GO 0005783, Total 244
# [7] = Cellular component: Extracellular, GO 0005576, Total 586
# [8] = Cellular component: Membrane, GO 0016020, Total 1976
# [9] = Cellular component: Mitochondrion, GO 0005739, Total 315
# [10] = Cellular component: Nucleus, GO 0005634, Total 1483
# [11] = Cellular component: Ribosome, GO 0005840, Total 61
# [12] = Cellular component: actin cytoskeleton, GO 0015629, Total 120
# [13] = Cellular component: endomembrane system, GO 0012505, Total 112
# [14] = Cellular component: extracellular matrix, GO 0005578, Total 181
# [15] = Cellular component: extracellular space, GO 0005615, Total 228
# [16] = Cellular component: integral to membrane, GO 0016021, Total 1549
# [17] = Cellular component: microtubule cytoskeleton, GO 0015630, Total 78
# [18] = Cellular component: mitochondrial membrane, GO 0005740, Total 75
# [19] = Cellular component: nuclear membrane, GO 0005635, Total 50
# [20] = Cellular component: nucleolus, GO 0005730, Total 39
# [21] = Cellular component: nucleoplasm, GO 0005654, Total 91
# [22] = Cellular component: plasma membrane, GO 0005886, Total 1041
# [23] = Molecular function: Apoptosis regulator activity, GO 0016329, Total 44
# [24] = Molecular function: Binding, GO 0005488, Total 3368
# [25] = Molecular function: Catalytic activity, GO 0003824, Total 2129
# [26] = Molecular function: Cell adhesion molecule activity, GO 0005194, Total 209
# [27] = Molecular function: Defense/immunity protein activity, GO 0003793, Total 36
# [28] = Molecular function: Enzyme regulator activity, GO 0030234, Total 306
# [29] = Molecular function: Motor activity, GO 0003774, Total 61
# [30] = Molecular function: Obsolete molecular function, GO 0008369, Total 419
# [31] = Molecular function: Signal transducer activity, GO 0004871, Total 1157
# [32] = Molecular function: Structural molecule activity, GO 0005198, Total 333
# [33] = Molecular function: Transcription regulator activity, GO 0030528, Total 630
# [34] = Molecular function: Translation regulator activity, GO 0045182, Total 43
# [35] = Molecular function: Transporter activity, GO 0005215, Total 822
# [36] = Molecular function: carrier activity, GO 0005386, Total 239
# [37] = Molecular function: electron transporter activity, GO 0005489, Total 138
# [38] = Molecular function: enzyme inhibitor activity, GO 0004857, Total 132
# [39] = Molecular function: extracellular matrix structural constituent, GO 0005201, Total 60
# [40] = Molecular function: hydrolase activity, GO 0016787, Total 917
# [41] = Molecular function: kinase activity, GO 0016301, Total 409
# [42] = Molecular function: lipid binding, GO 0008289, Total 94
# [43] = Molecular function: metal ion binding, GO 0046872, Total 631
# [44] = Molecular function: nucleic acid binding, GO 0003676, Total 1232
# [45] = Molecular function: nucleotide binding, GO 0000166, Total 763
# [46] = Molecular function: oxidoreductase activity, GO 0016491, Total 320
# [47] = Molecular function: protein binding, GO 0005515, Total 814
# [48] = Molecular function: receptor activity, GO 0004872, Total 678
# [49] = Molecular function: receptor binding (under Binding), GO 0005102, Total 301
# [50] = Molecular function: receptor binding (under Signal transducer activity), GO 0005102, Total 301
# [51] = Molecular function: receptor signaling protein activity, GO 0005057, Total 127
# [52] = Molecular function: structural constituent of cytoskeleton, GO 0005200, Total 62
# [53] = Molecular function: transcription factor activity, GO 0003700, Total 472
# [54] = Molecular function: transferase activity, GO 0016740, Total 706
smiles,measurement,setting,value
"Nc1ncn([C@H]2C[C@H](O)[C@@H](CO)O2)c(=O)n1 [5-aza-dC, 5-aza-2′-deoxycytidine]",5-aza-dC Up,"Cellular component: Cellular—component unknown, GO 0008372, Total 266",8
same,5-aza-dC Down,[1],0
same,5-aza-dC Up,[1],10
same,5-aza-dC Down,[2],9
same,5-aza-dC Up,[2],30
same,5-aza-dC Down,[3],0
same,5-aza-dC Up,[3],2
same,5-aza-dC Down,[4],1
same,5-aza-dC Up,[4],4
same,5-aza-dC Down,[5],1
same,5-aza-dC Up,[5],2
same,5-aza-dC Down,[6],1
same,5-aza-dC Up,[6],4
same,5-aza-dC Down,[7],1
same,5-aza-dC Up,[7],23
same,5-aza-dC Down,[8],6
same,5-aza-dC Up,[8],24
same,5-aza-dC Down,[9],2
same,5-aza-dC Up,[9],3
same,5-aza-dC Down,[10],7
same,5-aza-dC Up,[10],44
same,5-aza-dC Down,[11],1
same,5-aza-dC Up,[11],1
same,5-aza-dC Down,[12],0
same,5-aza-dC Up,[12],0
same,5-aza-dC Down,[13],0
same,5-aza-dC Up,[13],1
same,5-aza-dC Down,[14],0
same,5-aza-dC Up,[14],4
same,5-aza-dC Down,[15],0
same,5-aza-dC Up,[15],13
same,5-aza-dC Down,[16],5
same,5-aza-dC Up,[16],18
same,5-aza-dC Down,[17],1
same,5-aza-dC Up,[17],0
same,5-aza-dC Down,[18],0
same,5-aza-dC Up,[18],0
same,5-aza-dC Down,[19],0
same,5-aza-dC Up,[19],0
same,5-aza-dC Down,[20],0
same,5-aza-dC Up,[20],1
same,5-aza-dC Down,[21],0
same,5-aza-dC Up,[21],5
same,5-aza-dC Down,[22],3
same,5-aza-dC Up,[22],13
same,5-aza-dC Down,[23],0
same,5-aza-dC Up,[23],4
same,5-aza-dC Down,[24],9
same,5-aza-dC Up,[24],83
same,5-aza-dC Down,[25],12
same,5-aza-dC Up,[25],43
same,5-aza-dC Down,[26],0
same,5-aza-dC Up,[26],3
same,5-aza-dC Down,[27],0
same,5-aza-dC Up,[27],1
same,5-aza-dC Down,[28],5
same,5-aza-dC Up,[28],6
same,5-aza-dC Down,[29],0
same,5-aza-dC Up,[29],0
same,5-aza-dC Down,[30],1
same,5-aza-dC Up,[30],12
same,5-aza-dC Down,[31],5
same,5-aza-dC Up,[31],23
same,5-aza-dC Down,[32],3
same,5-aza-dC Up,[32],4
same,5-aza-dC Down,[33],0
same,5-aza-dC Up,[33],18
same,5-aza-dC Down,[34],1
same,5-aza-dC Up,[34],1
same,5-aza-dC Down,[35],1
same,5-aza-dC Up,[35],14
same,5-aza-dC Down,[36],1
same,5-aza-dC Up,[36],3
same,5-aza-dC Down,[37],1
same,5-aza-dC Up,[37],5
same,5-aza-dC Down,[38],2
same,5-aza-dC Up,[38],4
same,5-aza-dC Down,[39],0
same,5-aza-dC Up,[39],1
same,5-aza-dC Down,[40],4
same,5-aza-dC Up,[40],25
same,5-aza-dC Down,[41],3
same,5-aza-dC Up,[41],2
same,5-aza-dC Down,[42],0
same,5-aza-dC Up,[42],1
same,5-aza-dC Down,[43],0
same,5-aza-dC Up,[43],12
same,5-aza-dC Down,[44],6
same,5-aza-dC Up,[44],36
same,5-aza-dC Down,[45],3
same,5-aza-dC Up,[45],10
same,5-aza-dC Down,[46],2
same,5-aza-dC Up,[46],6
same,5-aza-dC Down,[47],1
same,5-aza-dC Up,[47],26
same,5-aza-dC Down,[48],4
same,5-aza-dC Up,[48],11
same,5-aza-dC Down,[49],1
same,5-aza-dC Up,[49],14
same,5-aza-dC Down,[50],1
same,5-aza-dC Up,[50],14
same,5-aza-dC Down,[51],0
same,5-aza-dC Up,[51],0
same,5-aza-dC Down,[52],0
same,5-aza-dC Up,[52],1
same,5-aza-dC Down,[53],0
same,5-aza-dC Up,[53],12
same,5-aza-dC Down,[54],5
same,5-aza-dC Up,[54],8
